Data set [1] has as its system Beagle dogs. In words: Hemodynamic effects (blood pressure) in beagle dogs, bolus IV. The data set is classed as in vivo, dog. The note with it: for MAP % change from baseline: 4 min after bolus IV. As to the method:
The study was a crossover design. […] The MTD was defined as the dose that reduced mean arterial blood pressure (MAP) by 50% or to less than 50 millimeters of mercury (mmHg or mm Hg). All animals received supplemental oxygen and, if needed, ventilatory support after 4 min of apnea.
Hemodynamic data, such as mean arterial pressure (MAP), were recorded at baseline, 1, 2, 4, 8, 15, 20 and 30 min. Compound 1 was administered at 5, 10, 15 and 30 mg/kg to 6, 4, 3 and 3 dogs respectively. […] Data were analyzed with a 2-way ANOVA followed by t-test with Bonferroni correction for multiple comparisons.

Data set [2] is described as follows: Anesthetic effects in rats, bolus IV (LORR model of general anesthesia). The note with it: male, Sprague-Dawley, rat, in vivo, read-out: MTD (maximum tolerated dose). The data set is classed as in vivo, rat. As to the method:
(§1) Also measured was minimum dose to achieve LORR and maximum tolerated dose (MTD).
(§2) The ranges of doses studied were 2, 3, 4, 7, 14 and 21 mg/kg for Compound 1 and 3.5, 4.0, 7.0 and 14.0 mg/kg for […].

A further data set relates to male Sprague-Dawley rats. The description is as above. The data set is classed as in vivo, rat. As to the method: as §1, §2
For data set [3], the system named is Beagle dogs.
The next data set relates to Male descented ferrets. In words: Anti-emetic activity in ferrets (morphine sulfate-induced emesis). The data set is classed as in vivo, ferret. The following applies: 6 ferrets, morphine sulfate 0.5 mg/kg subcutaneously alone, 45 min observation. As to the method: Male descented ferrets weighing 1.0-1.5 kg with vascular access ports in the jugular vein were housed on a 12/12-hour light/dark cycle under controlled temperature, with food and water provided ad libitum. On each study day, food was presented to ferrets one hour prior to dosing. Immediately prior to dosing, food and water were removed. A 1% Compound 1 formulation, prepared as described in Example 2 and formulated in accordance with Example 5, or […] was administered by IV infusion to the ferrets; see Wynn R L et al, 1993, Eur J Pharmacol 241, 42 re […] administration in ferrets. After administration of Compound 1 or […], animals were placed in clean, transparent cages (with lids) and left unrestrained for a 45-min observation period by an observer blinded to the specific treatment administered.
Episodes of retching and/or vomiting were considered separate episodes when the interval between retches and/or vomits exceeded 5 sec.
After termination of the infusion, 0.5 mg/kg morphine sulfate was administered subcutaneously and the ferrets were monitored for 45 min as described above. Six additional ferrets were administered subcutaneously 0.5 mg/kg morphine sulfate only.

Data set [4] is described as follows: Aqueous phase concentration in lipid emulsion (pain on injection surrogate), ultrafiltration + LC/MS/MS. The data set is classed as physicochemical. The following applies: aqueous phase of 1% lipid emulsion separated by ultrafiltration. As to the method: The concentration of Compound 1 in the aqueous phase (aqueous phase concentration) of a lipid emulsion formulation was determined.
A one percent (1%) Compound 1 formulation was formulated in accordance with Example 5, Compound 1 being prepared as described in Example 2.

Data set [5] relates to commercial farm-bred swine. In words: Hemodynamic effects, blood gas and serum chemistry in anesthetized ventilated pigs, IV infusion. The data set is classed as in vivo, pig. The following applies: IV infusion, Compound 1 0.6 mg/kg/min vs propofol 0.750 mg/kg/min. As to the method: Anesthesia was induced with isoflurane. Intravascular access was obtained from an ear vein. Each pig was intubated and mechanically ventilated.
ECG was monitored throughout the study. […] Body temperature was maintained at 37° C.
Arterial blood gas samples from pigs infused with Compound 1 were taken and analyzed for blood gas and serum chemistry values.

The test system of another data set is Male Sprague Dawley rats. In words: Test A. Loss of Righting Reflex Assay. The data set is classed as in vivo, rat. The note with it: 7 mg/kg bolus in tail vein, 1% formulation. As to the method: The ability of a compound of the invention to produce a sedative or hypnotic effect can be determined using standard pharmacological models which are well known to the art.
Test A. Loss of Righting Reflex Assay
Male Sprague Dawley rats were restrained in a holder and injection test compounds were injected in the tail vein (based on mg test compound/kg body weight). Following administration, the rats were placed in dorsal recumbent position on a heating blanket. The time to onset for the loss of the Righting Reflex (RR-ability of rat to right itself) was recorded, as was the duration of the loss of the RR.

Entries after “also recorded” stand apart in the source; their conditions may differ. Like-named read-outs stand apart in the source and are kept apart here. Marks after values point to notes of the source that are not given here. Bounds are passed on as bounds.

For the compound `CC[C@H](C)c1cccc(C(C)C)c1O` [(S)-(+)-2-sec-butyl-6-isopropylphenol], the “MAP % change from baseline” value is given as “+3%” in the data set with Beagle dogs [1] (10 mg/kg), “+1%” in the data set with Beagle dogs [1] (15 mg/kg) and −33% in the data set on Beagle dogs [1] (30 mg/kg). In addition, the MTD (as a rule, the largest dose that counted as tolerated) in data set [2] turned out to be 21 mg/kg. Further, in the data set with male Sprague-Dawley rats, the “HD50 (dose required to cause 50% of the rats to lose righting reflex)” value is on record as 5 mg/kg. Besides, in the data set on male Sprague-Dawley rats, the “HD7 min (dose required to produce 7 minutes of anesthesia)” value worked out at 6.7 mg/kg. The “TI (therapeutic index; ratio of MTD to HD7 min)” value with male Sprague-Dawley rats came out at 3.1. The deaths result in the data set with male Sprague-Dawley rats (6 rats per dose group, dose as stated) is reported as “One of six rats died when administered 28 mg/kg”. For the same compound, the “duration of anesthesia (sleep time)” value in the data set with Beagle dogs [3] (dogs, bolus IV, 5 mg/kg) is 12 min; with Beagle dogs [3] (dogs, bolus IV, 10 mg/kg) it was 33 min; with Beagle dogs [3] (dogs, bolus IV, 15 mg/kg), 50 min; in the data set with Beagle dogs [3] (dogs, bolus IV, 30 mg/kg), 56 min.
Consider `CN1CC[C@]23c4c5ccc(O)c4O[C@H]2[C@@H](O)C=C[C@H]3[C@H]1C5.O=S(=O)(O)O` [Morphine sulfate, reference compound], for which, in the data set with Male descented ferrets, the episodes of vomiting amounted to 15 and the retches is 157.
On to `CC(C)c1cccc(C(C)C)c1O` [propofol, 2,6-diisopropylphenol, reference compound], for which the “MAP % change from baseline” value is reported as −22% in the data set on Beagle dogs [1] (10 mg/kg), −32% with Beagle dogs [1] (15 mg/kg) and −66%* in the data set with Beagle dogs [1] (30 mg/kg). Besides, in the data set with Beagle dogs [1] (bolus IV), the “effect on MAP, comparison” value is given as “significantly greater effect on MAP than does Compound 1; also recorded: significantly greater effect on MAP than did (S)-(+)-2-sec-butyl-6-isopropylphenol”. For the same compound, the aqueous phase concentration in data set [4] came out at 6.28 ± 0.41 µg/mL. In data set [5] (FIG. 3), the “decrease in MAP, comparison” value was “significantly larger decrease in MAP than Compound 1”. Further, the “lowest HR measured, comparison” value in data set [5] (FIG. 4) is “significantly lower than the lowest HR measured for Compound 1”. In data set [2], the MTD was < 14 mg/kg. Further, the “TI (therapeutic index; ratio of MTD to HD7 min)” value in the data set with male Sprague-Dawley rats was <2. The “production of LORR by dose” value in the data set on male Sprague-Dawley rats (6 rats per dose group) is recorded as “no LORR in 4 of 6 rats tested at 3.5 mg/kg”. Further, the “duration of anesthesia (sleep time)” value in the data set with Beagle dogs [3] (dog, in vivo, iv, 5 mg/kg) was 13 min; in the data set on Beagle dogs [3] (dog, in vivo, iv, 10 mg/kg), 28 min; in the data set on Beagle dogs [3] (dog, in vivo, iv, 15 mg/kg), 43 min; in the data set on Beagle dogs [3] (dog, in vivo, iv, 30 mg/kg), 69 min. Moreover, in the data set on Beagle dogs [3] (dog, in vivo, iv, 15 mg/kg), the “dogs reaching the MTD (MAP reduced by 50% or to less than 50 mmHg)” value is listed as “Two of 3 dogs”. For the same compound, the “duration of anesthesia (loss of the Righting Reflex)” value in the data set on Male Sprague Dawley rats was 7.1 min.

For the origin of these results see patent publication US8350097B2, “Therapeutic compounds” (priority 2007, dated 2013).
